We go through four molecules from EP1000039B1 (Wyeth Holdings Corporation, priority 1997, dated 1999).

Series [1] deals with Human Epidermoid Tumors (A431). Briefly: In Vivo Inhibition of the Growth of Human Epidermoid Tumors (A431) in mice. As to conditions: days 1 through 10.
A further series has as its system SW620. Briefly: Inhibition of Cancer Cell Growth (Sulforhodamine B). As to conditions: Homo sapiens, SW-620, 48 hours exposure, read-out: Inhibition of Cancer Cell Growth as Measured by Cell Number (IC50) SW620. It is filed as cell-based, Human. The procedure:
(§1) After 48 hours exposure to test compounds, cells were fixed with trichloroacetic acid, and stained with Sulforhodamine B. After washing with trichloroacetic acid, bound dye was solubilized in 10 mM Tris base and optical density was determined using plate reader. Under conditions of the assay the optical density is proportional to the number of cells in the well. […] The test procedure is described in details by Philip Skehan et. al. J.Natl. Canc. […]

The subject of a further series is MCF7. Described as above. It is filed as cell-based, Human. As to conditions: Homo sapiens, 48 hours exposure, read-out: Inhibition of Cancer Cell Growth as Measured by Cell Number (IC50) MCF7. The procedure:
as §1

Another series deals with SKBR3. The series is described as above. The class given is cell-based, Human. As to conditions: Homo sapiens, SK-BR-3, 48 hours exposure, read-out: Inhibition of Cancer Cell Growth as Measured by Cell Number (IC50) SKBR3. The protocol: as §1
The next series has as its system MB435. Described as above. Conditions: Homo sapiens, 48 hours exposure, read-out: Inhibition of Cancer Cell Growth as Measured by Cell Number (IC50) MB435. It is filed as cell-based, Human. The protocol: as §1
A further series relates to LOX. The description is as above. It is filed as cell-based, Human. As to conditions: Homo sapiens, 48 hours exposure, read-out: Inhibition of Cancer Cell Growth as Measured by Cell Number (IC50) LOX. The procedure:
as §1

In the next series the test system is A2780S. The series is described as above. It is filed as cell-based, Human. As to conditions: Homo sapiens, 48 hours exposure, read-out: Inhibition of Cancer Cell Growth as Measured by Cell Number (IC50) A2780S. The procedure:
as §1

The next series relates to A2780DDP. The description is as above. It is filed as cell-based, Human. Conditions: Homo sapiens, 48 hours exposure, read-out: Inhibition of Cancer Cell Growth as Measured by Cell Number (IC50) A2780DDP. The procedure:
as §1

The next series has as its system A431. Described as above. The class given is cell-based, Human. Conditions: Homo sapiens, A-431, 48 hours exposure, read-out: Inhibition of Cancer Cell Growth as Measured by Cell Number (IC50) A431. The protocol:
as §1

Series [2] concerns the target T1, His-tagged cytoplasmic domain of EGFR (Homo sapiens, UniProt P00533).
T1 construct: containing the EGFR cDNA encoding amino acids 645 - 1186 preceded by Met-Ala-(His)6; Met-Ala-(His)6 (N); made in house; host or cells: Sf9 insect cells, recombinant baculovirus vHcEGFR52
Put plainly: Inhibition of Epidermal Growth Factor Receptor Kinase (EGF-R) using recombinant enzyme, RR-SRC peptide phosphorylation. It is filed as biochemical. Conditions: recombinant enzyme; average of the number of tests; read-out: IC50. The protocol:
The enzyme used in this assay is the His-tagged cytoplasmic domain of EGFR. […] Sf9 cells in 100 mm plates were infected at an moi of 10 pfu/cell and cells were harvested 48 h post infection. A cytoplasmic extract was prepared using 1% Triton X-100 and applied to Ni-NTA column. After washing the column with 20 mM imidazole, HcEGFR was eluted with 250 mM imidazole (in 50 mM Na2HPO4, pH 8.0, 300 mM NaCl). Fractions collected were dialyzed against 10 mM HEPES, pH 7.0, 50 mM NaCl, 10% glycerol, 1ug/mL antipain and leupeptin and 0. 1 mM Pefabloc SC. The protein was frozen in dry ice/methanol and stored -70°C.
For the enzyme reaction, 10 uL of each inhibitor (at various concentrations) were added to each well of a 96-well plate. To this was added 3 uL of enzyme (1: 10 dilution in 10mM HEPES, pH 7.4 for final conc. of 1:120). This was allowed to sit for 10 min on ice and was followed by the addition of 5 ul peptide (80 uM final conc.), 10ul of 4X Buffer (Table A), 0.25 uL ^33P-ATP and 12 uL H2O. The reaction was allowed to run for 90 min at room temperature and was followed by spotting the entire volume on to precut P81 filter papers. The filter discs were washed 2X with 0.5% phosphoric acid and radioactivity was measured using a liquid scintillation counter.

The subject of series [3] is Human Epidermoid Tumors (A431). Briefly: In Vivo Inhibition of the Growth of Human Epidermoid Tumors (A431) in mice. The procedure: BALB/c nu/nu female mice (Charles River, Wilmington, MA) were used in the in vivo standard pharmacological test procedures. Human epidermoid carcinoma cells A-431 (American Type Culture Collection, Rockville, Maryland # CRL-155) were grown in vitro as described above. A unit of 5 X 10^6 cells were injected SC into mice. When tumors attained a mass of between 100 and 150 mg, the mice were randomized into treatment groups (day zero). Mice were treated iP or PO once a day either on days 1, 5, and 9 or on days 1 through 10 post staging with doses of either 80, 40 or 20, or 10 mg/kg/dose of the compound to be evaluated in 0.2% Klucel. Control animals received no drug. Tumor mass was determined every 7 days [(length X width^2)/2) for 28 days post staging. Relative tumor growth (Mean tumor mass on day 7, 14, 21, and 28 divided by the mean tumor mass on day zero) is determined for each treatment group. The %T/C (Tumor/Control) is determined by dividing the relative tumor growth of the treated group by the relative tumor growth of the placebo group and multiplying by 100. A compound is considered to be active if the %T/C is found to be […].

Series [4] addresses epidermal growth factor receptor kinase (Homo sapiens, UniProt P00533). Briefly: Inhibition of Epidermal Growth Factor Receptor Kinase (EGF-R), cell membrane preparation (A431 membrane extract), RR-SRC peptide phosphorylation. As to conditions: average of the number of tests.
Experimental: Test compounds were evaluated for their ability to inhibit the phosphorylation of the tyrosine residue of a peptide substrate catalyzed by the enzyme epidermal growth factor receptor kinase. […] The enzyme was obtained as a membrane extract of A431 cells (American Type Culture Collection, Rockville, MD). A431 cells were grown in T175 flasks to 80% confluency. The cells were washed twice with phosphate buffered saline (PBS) without Ca^2+. Flasks were rotated for 1.5 hours in 20 mL PBS with 1.0 mM ethylenediaminetetraacetic acid (EDTA) at room temperature and centrifuged at 600g for 10 minutes. […]
An aliquot of the A431 membrane extract (10 mg/mL) was diluted in 30 mM HEPES (pH 7.4) to give a protein concentration of 50 ug/mL. […] The % inhibition of the test compound was determined for at least three different concentrations and the IC50 value was evaluated from the dose response curve. […] CPM(control) is in units of counts per minute and was a number expressing the amount of radiolabled ATP (γ-^33P) incorporated onto the RR-SRC peptide substrate by the enzyme after 30 minutes at 30°C in the absence of test compound as measured by liquid scintillation counting. […]

Values after ≈ are worked out from the molar mass of the structure shown.

Sequence of epidermal growth factor receptor kinase (P00533 25-1210): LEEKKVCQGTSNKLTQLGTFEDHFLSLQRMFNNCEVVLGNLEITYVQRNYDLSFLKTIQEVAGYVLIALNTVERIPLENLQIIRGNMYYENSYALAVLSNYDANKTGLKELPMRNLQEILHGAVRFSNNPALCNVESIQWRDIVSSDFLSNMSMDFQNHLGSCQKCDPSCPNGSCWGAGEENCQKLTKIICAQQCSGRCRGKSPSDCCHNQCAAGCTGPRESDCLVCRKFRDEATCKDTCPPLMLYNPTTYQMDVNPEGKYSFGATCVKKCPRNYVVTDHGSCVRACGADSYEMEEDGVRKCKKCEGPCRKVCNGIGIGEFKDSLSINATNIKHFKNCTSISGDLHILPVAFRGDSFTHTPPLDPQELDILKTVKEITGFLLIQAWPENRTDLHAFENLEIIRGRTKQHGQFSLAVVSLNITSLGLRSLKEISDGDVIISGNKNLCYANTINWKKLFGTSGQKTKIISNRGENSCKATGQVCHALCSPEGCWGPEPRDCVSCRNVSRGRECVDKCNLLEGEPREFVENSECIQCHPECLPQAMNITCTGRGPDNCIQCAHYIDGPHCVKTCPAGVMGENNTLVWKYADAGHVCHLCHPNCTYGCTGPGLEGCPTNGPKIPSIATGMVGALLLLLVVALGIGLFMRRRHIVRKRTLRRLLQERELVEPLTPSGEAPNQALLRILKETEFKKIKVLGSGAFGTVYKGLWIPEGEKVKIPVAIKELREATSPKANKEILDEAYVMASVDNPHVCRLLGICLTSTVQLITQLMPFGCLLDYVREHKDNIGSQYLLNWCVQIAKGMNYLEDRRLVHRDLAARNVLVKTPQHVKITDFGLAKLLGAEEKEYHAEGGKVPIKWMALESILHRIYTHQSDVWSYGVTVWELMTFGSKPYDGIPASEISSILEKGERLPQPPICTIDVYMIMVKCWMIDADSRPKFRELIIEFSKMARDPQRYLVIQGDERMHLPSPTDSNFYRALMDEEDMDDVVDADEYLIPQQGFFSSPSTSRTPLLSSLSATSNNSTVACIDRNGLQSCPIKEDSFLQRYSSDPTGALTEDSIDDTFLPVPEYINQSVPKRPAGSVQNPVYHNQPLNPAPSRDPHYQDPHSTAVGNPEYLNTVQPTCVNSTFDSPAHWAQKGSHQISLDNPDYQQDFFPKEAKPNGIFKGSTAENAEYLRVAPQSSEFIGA
T1 sequence (P00533 669-1210): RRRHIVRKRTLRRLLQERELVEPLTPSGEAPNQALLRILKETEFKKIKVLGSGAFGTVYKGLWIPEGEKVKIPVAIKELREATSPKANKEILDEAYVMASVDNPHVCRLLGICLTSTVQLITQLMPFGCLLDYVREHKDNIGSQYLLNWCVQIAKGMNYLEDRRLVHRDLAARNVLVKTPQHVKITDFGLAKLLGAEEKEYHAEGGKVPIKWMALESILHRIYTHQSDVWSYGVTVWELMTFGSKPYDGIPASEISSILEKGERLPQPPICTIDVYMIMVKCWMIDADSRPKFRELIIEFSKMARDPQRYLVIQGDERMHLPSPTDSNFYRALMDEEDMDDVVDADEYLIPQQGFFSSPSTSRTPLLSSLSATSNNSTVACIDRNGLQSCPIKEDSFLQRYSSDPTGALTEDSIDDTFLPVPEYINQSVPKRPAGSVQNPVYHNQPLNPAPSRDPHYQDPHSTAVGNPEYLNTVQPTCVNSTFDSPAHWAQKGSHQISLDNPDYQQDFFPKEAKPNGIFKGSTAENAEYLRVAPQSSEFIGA

On to `CN(C)CC#CC(=O)Nc1ccc2ncnc(Nc3cccc(Br)c3)c2c1` [Example 21, 4-Dimethylamino-but-2-ynoic acid [4-(3-bromo-phenylamino)-quinazolin-6-yl]-amide], for which the “%T/C Day 16” value in [1] (10 mg/kg/dose PO (footnote: IP)) came to 56%; in series [1] (20 mg/kg/dose PO (footnote: IP)), 82%; in [1] (40 mg/kg/dose PO (footnote: IP)) it was 84%.
`CCN(CC)CC#CC(=O)Nc1ccc2ncnc(Nc3cccc(Br)c3)c2c1` [Example 25, 4-Diethylamino-but-2-ynoic acid [4-(3-bromo-phenylamino)-quinazolin-6-yl]-amide]: the IC50 worked out at 0.07 µg/mL (≈ 0.155 µM) in the series with SW620; 0.74 µg/mL (≈ 1.64 µM) in the series on MCF7; 0.004 µg/mL (≈ 0.00884 µM) with SKBR3; 0.05 µg/mL (≈ 0.111 µM) with MB435; 0.1 µg/mL (≈ 0.221 µM) in the series with LOX; 0.04 µg/mL (≈ 0.0884 µM) in the series with A2780S. The IC50 in the series on A2780DDP was 0.04 µg/mL (≈ 0.0884 µM); in the series on A431 it was 0.06 µg/mL (≈ 0.133 µM); in series [2], 14 nM. Further, the “S/T (No. Survivors/No. Treated on Day +28 post tumor staging)” value in [3] (Table 5: 40 PO, days 1 through 10) is reported as 4/5. In addition, the “%T/C Day 7” value in series [3] (Table 5: 40 PO, days 1 through 10, Day 7) was 71%. The “%T/C Day 14” value in series [3] (Table 5: 40 PO, days 1 through 10, Day 14) came to 33%. Also, the “%T/C Day 21” value in series [3] (Table 5: 40 PO, days 1 through 10, Day 21) worked out at 40%. The “%T/C Day 28” value in series [3] (Table 5: 40 PO, days 1 through 10, Day 28) worked out at 52%. The “inhibition of tumor growth in vivo (result in words)” value in series [3] (summary of the results of TABLE 4 / TABLE 5) is on record as “effective inhibitor of tumor growth in vivo”.
On to `COC(=O)/C=C/CNc1ccc2ncnc(Nc3cccc(Br)c3)c2c1` [Example 60, (E)-4-[4-(3-Bromo-phenylamino)-quinazolin-6-ylamino]-but-2-enoicacid methyl ester], for which the concentration for half-maximal inhibition (IC50) in the series with SW620 was 1.89 µg/mL (≈ 4.57 µM); with MCF7, 0.566 µg/mL (≈ 1.37 µM); with LOX, 0.725 µg/mL (≈ 1.75 µM); in the series on A2780S it was 0.749 µg/mL (≈ 1.81 µM); in the series with A2780DDP, 0.626 µg/mL (≈ 1.51 µM); with A431, 0.35 µg/mL (≈ 0.847 µM). This molecule also gave a concentration for half-maximal inhibition (IC50) in series [4] of 34 nM.
With `C=C(CNc1ccc2ncnc(Nc3cccc(Br)c3)c2c1)C(=O)OC` [Example 59, 2-{[4-(3-Bromo-phenylamino)-quinazolin-6-ylamino]-methyl)-acrylic acid methyl ester], the IC50 in the series on SW620 is 0.581 µg/mL (≈ 1.41 µM); in the series with MCF7, 1.58 µg/mL (≈ 3.82 µM); with LOX, 0.482 µg/mL (≈ 1.17 µM); in the series on A2780S, 0.424 µg/mL (≈ 1.03 µM); with A2780DDP, 0.603 µg/mL (≈ 1.46 µM); in the series on A431 it was 0.315 µg/mL (≈ 0.762 µM). In [4], this molecule had an IC50 of 1.26 nM.
